Experiments:
[1] = test system: bromodomain; experiment: Bromodomain cell assays of Example 40 (at least one of them); type: cell-based; details: in at least one of the bromodomain cell assays described in Example 40
How it was run: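 Growth inhibition: 3000 MV-4-11, MOLM-13, MM.1S or neuroblastoma cells/well got an 8-point 1:3 series from 10 μM top (0.2% DMSO) for 72 h, then CellTiter-Glo luminescence. Myc reporter: MV-4-11 with E-box firefly luciferase, 24 h exposure, One-Glo luminescence plus CellTiter-Fluo cell count. pIC50 from four-parameter fit.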

[2] = test system: MV-4-11; experiment: Oncology cell growth assay MV-4-11 (CellTiter Glo, 72 hours); type: cell-based; details: Homo sapiens, MV4-11, 72 h; MV-4-11 cell growth inhibitory activity, 3d
How it was run: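 Growth read by CellTiter Glo luminescence after 72 h compound exposure of MV-4-11 AML cells (MLL-AF4), using 8-point 1:3 series to 10 μM final in 0.2% DMSO. Data normalized to DMSO wells, four-parameter fit yields pIC50.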

For `C=CCn1cc(-c2cn(S(=O)(=O)CCC(F)(F)F)c3cc(-c4c(C)noc4C)cnc23)cn1` [P-0129, 4-[3-(1-allylpyrazol-4-yl)-1-(3,3,3-trifluoropropylsulfonyl)pyrrolo[3,2-b]pyridin-6-yl]-3,5-dimethyl-isoxazole], which IC50 [1] is on record?
Its IC50 is under 10 µM.

What about the IC50 [2] of the same compound?
Its IC50 is at most 1 µM.

For `Cc1noc(C)c1-c1cnc2c(-c3cnn(C(F)F)c3)cn(S(=O)(=O)c3ccccc3)c2c1` [P-0131, 4-[1-(benzenesulfonyl)-3-[1-(difluoromethyl)pyrazol-4-yl]pyrrolo[3,2-b]pyridin-6-yl]-3,5-dimethyl-isoxazole], which IC50 [1] is on record?
The IC50 was under 10 µM.

What about the IC50 [2] of the same compound?
The IC50 was at most 1 µM.

What does the source list for `Cc1noc(C)c1-c1cnc2c(-c3cnn(C(F)F)c3)cn(S(=O)(=O)c3ccccc3F)c2c1` [P-0132, 4-[3-[1-(difluoromethyl)pyrazol-4-yl]-1-(2-fluorophenyl)sulfonyl-pyrrolo[3,2-b]pyridin-6-yl]-3,5-dimethyl-isoxazole]?
IC50 [1]: < 10 µM; IC50 [2]: ≤ 1 µM

What does the source list for `Cc1noc(C)c1-c1cnc2c(-c3cnn(C(F)F)c3)cn(S(=O)(=O)C3CCC3)c2c1` [P-0134, 4-[1-cyclobutylsulfonyl-3-[1-(difluoromethyl)pyrazol-4-yl]pyrrolo[3,2-b]pyridin-6-yl]-3,5-dimethyl-isoxazole]?
IC50 [1]: < 10 µM; IC50 [2]: ≤ 1 µM

Which IC50 [1] does the source give for `CCCS(=O)(=O)n1cc(-c2cnn(C(F)F)c2)c2ncc(-c3c(C)noc3C)cc21` [P-0135, 4-[3-[1-(difluoromethyl)pyrazol-4-yl]-1-propylsulfonyl-pyrrolo [3,2-b]pyridin-6-yl]-3,5-dimethyl-isoxazole] here?
The IC50 was under 10 µM.

And the IC50 [2]?
Its IC50 is at most 1 µM.

Which IC50 [1] does the source give for `Cc1noc(C)c1-c1cnc2c(-c3cnn(C(F)F)c3)cn(S(=O)(=O)CCC(F)(F)F)c2c1` [P-0136, 4-[3-[1-(difluoromethyl)pyrazol-4-yl]-1-(3,3,3-trifluoropropylsulfonyl)pyrrolo[3,2-b]pyridin-6-yl]-3,5-dimethyl-isoxazole] here?
The IC50 was under 10 µM.

What about the IC50 [2] of the same compound?
Its IC50 is 1 to 10 µM.

Which IC50 [1] does the source give for `C=CCn1cc(-c2cn(S(=O)(=O)CCC)c3cc(-c4c(C)noc4C)cnc23)cn1` [P-0137, 4-[3-(1-allylpyrazol-4-yl)-1-propylsulfonyl-pyrrolo[3,2-b]pyridin-6-yl]-3,5-dimethyl-isoxazole] here?
Its IC50 is under 10 µM.

What about the IC50 [2] of the same compound?
The IC50 was at most 1 µM.

How did the IC50 [1] turn out when `C=CCn1cc(-c2cn(S(=O)(=O)C(C)CC)c3cc(-c4c(C)noc4C)cnc23)cn1` (stereo not shown) [P-0138, 4-[3-(1-allylpyrazol-4-yl)-1-sec-butylsulfonyl-pyrrolo[3,2-b]pyridin-6-yl]-3,5-dimethyl-isoxazole] was run?
Its IC50 is under 10 µM.

And the IC50 [2]?
Its IC50 is at most 1 µM.

Which IC50 [1] does the source give for `C=CCn1cc(-c2cn(S(=O)(=O)C3CC3)c3cc(-c4c(C)noc4C)cnc23)cn1` [P-0139, 4-[3-(1-allylpyrazol-4-yl)-1-cyclopropylsulfonyl-pyrrolo[3,2-b]pyridin-6-yl]-3,5-dimethyl-isoxazole] here?
The IC50 was under 10 µM.

What about the IC50 [2] of the same compound?
Its IC50 is at most 1 µM.

What does the source list for `C=CCn1cc(-c2cn(S(=O)(=O)CC3CC3)c3cc(-c4c(C)noc4C)cnc23)cn1` [P-0140, 4-[3-(1-allylpyrazol-4-yl)-1-(cyclopropylmethylsulfonyl)pyrrolo[3,2-b]pyridin-6-yl]-3,5-dimethyl-isoxazole]?
IC50 [1]: < 10 µM; IC50 [2]: ≤ 1 µM

What does the source list for `Cc1noc(C)c1-c1cnc2[nH]cc(Sc3cccc(F)c3)c2c1` [P-0141, 4-[3-(3-fluorophenyl)sulfanyl-1H-pyrrolo[2,3-b]pyridin-5-yl]-3,5-dimethyl-isoxazole]?
IC50 [1]: < 10 µM; IC50 [2]: 1 to 10 µM

Which IC50 [1] does the source give for `Cc1noc(C)c1-c1cnc2[nH]cc([S+]([O-])c3cccc(F)c3)c2c1` (stereo not shown) [P-0142, 4-[3-(3-fluorophenyl)sulfinyl-1H-pyrrolo[2,3-b]pyridin-5-yl]-3,5-dimethyl-isoxazole] here?
The IC50 was under 10 µM.

What about the IC50 [2] of the same compound?
Its IC50 is 1 to 10 µM.

What does the source list for `Cc1noc(C)c1-c1cnc2[nH]cc(S(=O)(=O)c3cccc(F)c3)c2c1` [P-0143, 4-[3-(3-fluorophenyl)sulfonyl-1H-pyrrolo[2,3-b]pyridin-5-yl]-3,5-dimethyl-isoxazole]?
IC50 [1]: < 10 µM; IC50 [2]: ≤ 1 µM

What does the source list for `Cc1noc(C)c1-c1cnc2[nH]cc(Sc3ccccc3)c2c1` [P-0144, 3,5-dimethyl-4-(3-phenylsulfanyl-1H-pyrrolo[2,3-b]pyridin-5-yl)isoxazole]?
IC50 [1]: < 10 µM; IC50 [2]: 1 to 10 µM

Which results are given for `Cc1noc(C)c1-c1cnc2[nH]cc(S(=O)(=O)c3ccccc3)c2c1` [P-0145, 4-[3-(benzenesulfonyl)-1H-pyrrolo[2,3-b]pyridin-5-yl]-3,5-dimethyl-isoxazole]?
IC50 [1]: < 10 µM; IC50 [2]: ≤ 1 µM

How did the IC50 [1] turn out when `Cc1noc(C)c1-c1cnc2c(-c3cnn(CC(F)(F)F)c3)cn(S(=O)(=O)c3ccccc3)c2c1` [P-0146, 4-[1-(benzenesulfonyl)-3-[1-(2,2,2-trifluoroethyl)pyrazol-4-yl]pyrrolo[3,2-b]pyridin-6-yl]-3,5-dimethyl-isoxazole] was run?
The IC50 was under 10 µM.

And the IC50 [2]?
Its IC50 is at most 1 µM.

With `COCCn1cc(-c2cn(S(=O)(=O)c3ccccc3)c3cc(-c4c(C)noc4C)cnc23)cn1` [P-0147, 4-[1-(benzenesulfonyl)-3-[1-(2-methoxyethyl)pyrazol-4-yl]pyrrolo[3,2-b]pyridin-6-yl]-3,5-dimethyl-isoxazole] as the compound, how does the IC50 [1] read?
The IC50 was under 10 µM.

And the IC50 [2]?
The IC50 was at most 1 µM.

`Cc1noc(C)c1-c1cnc2c(-c3cnn(C4CCOC4)c3)cn(S(=O)(=O)c3ccccc3)c2c1` (stereo not shown) [P-0148, 4-[1-(benzenesulfonyl)-3-(1-tetrahydrofuran-3-ylpyrazol-4-yl)pyrrolo[3,2-b]pyridin-6-yl]-3,5-dimethyl-isoxazole] was tested. Which IC50 [1] did it give?
The IC50 was under 10 µM.

What about the IC50 [2] of the same compound?
Its IC50 is at most 1 µM.

For `Cc1noc(C)c1-c1cnc2c(-c3cnn(CC(F)(F)F)c3)cn(S(=O)(=O)C3CCCC3)c2c1` [P-0149, 4-[1-cyclopentylsulfonyl-3-[1-(2,2,2-trifluoroethyl)pyrazol-4-yl]pyrrolo[3,2-b]pyridin-6-yl]-3,5-dimethyl-isoxazole], which IC50 [1] is on record?
The IC50 was under 10 µM.

What about the IC50 [2] of the same compound?
Its IC50 is at most 1 µM.

What does the source list for `CCCS(=O)(=O)n1cc(-c2cnn(CC(F)(F)F)c2)c2ncc(-c3c(C)noc3C)cc21` [P-0150, 3,5-dimethyl-4-[1-propylsulfonyl-3-[1-(2,2,2-trifluoroethyl)pyrazol-4-yl]pyrrolo[3,2-b]pyridin-6-yl]isoxazole]?
IC50 [1]: < 10 µM; IC50 [2]: ≤ 1 µM

For `COCCn1cc(-c2cn(S(=O)(=O)C3CCCC3)c3cc(-c4c(C)noc4C)cnc23)cn1` [P-0151, 4-[1-cyclopentylsulfonyl-3-[1-(2-methoxyethyl)pyrazol-4-yl]pyrrolo[3,2-b]pyridin-6-yl]-3,5-dimethyl-isoxazole], which IC50 [1] is on record?
Its IC50 is under 10 µM.

What about the IC50 [2] of the same compound?
Its IC50 is at most 1 µM.

How did the IC50 [1] turn out when `CCCS(=O)(=O)n1cc(-c2cnn(CCOC)c2)c2ncc(-c3c(C)noc3C)cc21` [P-0152, 4-[3-[l-(2-methoxyethyl)pyrazol-4-yl]-1-propylsulfonyl-pyrrolo [3,2-b]pyridin-6-yl]-3,5-dimethyl-isoxazole] was run?
The IC50 was under 10 µM.

What about the IC50 [2] of the same compound?
The IC50 was at most 1 µM.

How did the IC50 [1] turn out when `Cc1noc(C)c1-c1cnc2c(-c3cnn(C4CCOC4)c3)cn(S(=O)(=O)C3CCCC3)c2c1` (stereo not shown) [P-0153, 4-[1-cyclopentylsulfonyl-3-(1-tetrahydrofuran-3-ylpyrazol-4-yl)pyrrolo [3,2-b]pyridin-6-yl]-3,5-dimethyl-isoxazole] was run?
The IC50 was under 10 µM.

What about the IC50 [2] of the same compound?
The IC50 was at most 1 µM.

What does the source list for `CCCS(=O)(=O)n1cc(-c2cnn(C3CCOC3)c2)c2ncc(-c3c(C)noc3C)cc21` (stereo not shown) [P-0154, 3,5-dimethyl-4-[1-propylsulfonyl-3-(1-tetrahydrofuran-3-ylpyrazol-4-yl)pyrrolo [3,2-b]pyridin-6-yl] isoxazole]?
IC50 [1]: < 10 µM; IC50 [2]: ≤ 1 µM

What does the source list for `Cc1noc(C)c1-c1cnc2c(C#CCO)cn(S(=O)(=O)C3CCCC3)c2c1` [P-0156, 3-[1-cyclopentylsulfonyl-6-(3,5-dimethylisoxazol-4-yl)pyrrolo[3,2-b]pyridin-3-yl]prop-2-yn-1-ol]?
IC50 [1]: < 10 µM; IC50 [2]: ≤ 1 µM

How did the IC50 [1] turn out when `Cc1noc(C)c1-c1cnc2c(C#CCF)cn(S(=O)(=O)C3CCCC3)c2c1` [P-0158, 4-[1-cyclopentylsulfonyl-3-(3-fluoroprop-1-ynyl)pyrrolo[3,2-b]pyridin-6-yl]-3,5-dimethyl-isoxazole] was run?
The IC50 was under 10 µM.

And the IC50 [2]?
The IC50 was at most 1 µM.

For `Cc1noc(C)c1-c1cnc2ccn(C(C)c3ccccc3)c2c1` (stereo not shown) [P-0159, 3,5-dimethyl-4-[1-(1-phenylethyl)pyrrolo[3,2-b]pyridin-6-yl]isoxazole], which IC50 [1] is on record?
The IC50 was under 10 µM.

And the IC50 [2]?
Its IC50 is at most 1 µM.

For `C=CCn1cc(-c2cn(Cc3ccccc3)c3cc(-c4c(C)noc4C)cnc23)cn1` [P-0160, 4-[3-(1-allylpyrazol-4-yl)-1-benzyl-pyrrolo[3,2-b]pyridin-6-yl]-3,5-dimethyl-isoxazole], which IC50 [1] is on record?
The IC50 was under 10 µM.

What about the IC50 [2] of the same compound?
Its IC50 is at most 1 µM.

How did the IC50 [1] turn out when `Cc1noc(C)c1-c1cnc2c(-c3cnn(C)c3)cn(C(C)c3ccccc3)c2c1` (stereo not shown) [P-0161, 3,5-dimethyl-4-[3-(1-methylpyrazol-4-yl)-1-(1-phenylethyl)pyrrolo[3,2-b]pyridin-6-yl]isoxazole] was run?
The IC50 was under 10 µM.

What about the IC50 [2] of the same compound?
The IC50 was at most 1 µM.

Which results are given for `Cc1noc(C)c1-c1cnc2c(-c3cn[nH]c3)cn(S(=O)(=O)c3ccccc3)c2c1` [P-0163, 4-[1-(benzenesulfonyl)-3-(1H-pyrazol-4-yl)pyrrolo[3,2-b]pyridin-6-yl]-3,5-dimethyl-isoxazole]?
IC50 [1]: < 10 µM; IC50 [2]: ≤ 1 µM

With `Cc1noc(C)c1-c1cnc2[nH]cc(P(C)(=O)c3ccccc3)c2c1` (stereo not shown) [P-0165, 3,5-dimethyl-4-[3-[methyl(phenyl)phosphoryl]-1H-pyrrolo[2,3-b]pyridin-5-yl]isoxazole] as the compound, how does the IC50 [1] read?
Its IC50 is under 10 µM.

What about the IC50 [2] of the same compound?
The IC50 was at most 1 µM.

What does the source list for `Cc1noc(C)c1-c1cnc2c(-c3cn[nH]c3)cn(S(=O)(=O)C3CCCC3)c2c1` [P-0167, 4-[1-cyclopentylsulfonyl-3-(1H-pyrazol-4-yl)pyrrolo[3,2-b]pyridin-6-yl]-3,5-dimethyl-isoxazole]?
IC50 [1]: < 10 µM; IC50 [2]: ≤ 1 µM

From US10501460B2, “Heterocyclic compounds and uses thereof” (Plexxikon Inc., priority 2013, dated 2019)
